# Test results: US10149879B2 (priority 2014, dated 2018)
# Columns and labels:
# [1] = system: βTC6 insulinoma cell; test: Anti-oxidant activity in βTC6 insulinoma cell challenged with H2O2; type: cell-based; parameters: Anti-oxidant activity, cells challenged with H2O2: unit not given here; settings: for Anti-oxidant activity, cells challenged with H2O2: βTC6
# Text: Anti-Oxidant Activity in βTC6 Insulinoma Cell Challenged with H2O2 Berberin and Quercetin—
# Anti-Oxidant Activity in βTC6 Insulinoma Cell Challenged with H2O2 Berberin and Palmatine—
# [2] = system: 3T3-L1 cells; test: Anti-oxidant activity in 3T3-L1 cells challenged with H2O2; type: cell-based; parameters: Anti-oxidant activity, cells challenged with H2O2: scale not given here; settings: for Anti-oxidant activity, cells challenged with H2O2: 3T3-L1; for protection against H2O2 induced cellular oxidative damage: 3T3-L1 cells
# Text: Anti-Oxidant Activity in 3T3-L1 Cells Challenged with H2O2 Berberin and Palmatine
# Anti-Oxidant Activity in 3T3-L1 Cells Challenged with H2O2 Berberin and Quercetin
# [3] = system: L6 cells; test: Anti-oxidant activity in L6 cells challenged with H2O2; type: cell-based; parameters: Anti-oxidant activity, cells challenged with H2O2: unit not given here; settings: for Anti-oxidant activity, cells challenged with H2O2: L6; for protection against H2O2 induced cellular oxidative damage: L6 cells
# Text: Anti-Oxidant Activity in L6 Cells Challenged with H2O2 Berberin and Palmatine
# Anti-Oxidant Activity in L6 Cells Challenged with H2O2—Berberin and Quercetin
# [4] = system: 3T3-L1 cells; test: Cell viability assay in 3T3-L1 cells; settings: for Cell viability: 3T3-L1, control 100.00
# [5] = comparison with positive standard
compound,measurement,setting,value
COc1ccc2cc3[n+](cc2c1OC)CCc1cc2c(cc1-3)OCO2 [Berberin],"Anti-oxidant activity, cells challenged with H2O2","[1]; Co-incubated, 1 pM, control 55.54",54.53 ± 1.67
same,"Anti-oxidant activity, cells challenged with H2O2","[1]; Co-incubated, 1 pg/ml, control 55.64",59.70 ± 2.00
same,"Anti-oxidant activity, cells challenged with H2O2","[1]; Co-incubated, 10 pM, control 55.54",54.79 ± 2.95
same,"Anti-oxidant activity, cells challenged with H2O2","[1]; Co-incubated, 10 pg/ml, control 55.64",64.14 ± 2.04
same,"Anti-oxidant activity, cells challenged with H2O2","[1]; Co-incubated, 100 pg/ml, control 55.64",67.40 ± 1.43
same,"Anti-oxidant activity, cells challenged with H2O2","[1]; Co-incubated, 0.1 nM, control 55.54",56.02 ± 2.82
same,"Anti-oxidant activity, cells challenged with H2O2","[1]; Co-incubated, 1 nM, control 55.54",59.80 ± 1.30
same,"Anti-oxidant activity, cells challenged with H2O2","[1]; Co-incubated, 1 ng/ml, control 55.64",76.57 ± 1.50
same,"Anti-oxidant activity, cells challenged with H2O2","[1]; Co-incubated, 10 nM, control 55.54",60.75 ± 2.16
same,"Anti-oxidant activity, cells challenged with H2O2","[1]; Co-incubated, 10 ng/ml, control 55.64",85.90 ± 2.00
same,"Anti-oxidant activity, cells challenged with H2O2","[1]; Pre-incubate, 1 pg/ml, control 55.64",61.60 ± 2.00
same,"Anti-oxidant activity, cells challenged with H2O2","[1]; Pre-incubate, 10 pg/ml, control 55.64",65.18 ± 1.98
same,"Anti-oxidant activity, cells challenged with H2O2","[1]; Pre-incubate, 100 pg/ml, control 55.64",67.05 ± 2.45
same,"Anti-oxidant activity, cells challenged with H2O2","[1]; Pre-incubate, 1 ng/ml, control 55.64",74.40 ± 1.40
same,"Anti-oxidant activity, cells challenged with H2O2","[1]; Pre-incubate, 10 ng/ml, control 55.64",77.69 ± 2.10
same,"Anti-oxidant activity, cells challenged with H2O2","[1]; Pre-incubated, 1 pM, control 55.54",57.52 ± 0.80
same,"Anti-oxidant activity, cells challenged with H2O2","[1]; Pre-incubated, 10 pM, control 55.54",58.90 ± 2.87
same,"Anti-oxidant activity, cells challenged with H2O2","[1]; Pre-incubated, 0.1 nM, control 55.54",60.12 ± 3.40
same,"Anti-oxidant activity, cells challenged with H2O2","[1]; Pre-incubated, 1 nM, control 55.54",61.70 ± 1.60
same,"Anti-oxidant activity, cells challenged with H2O2","[1]; Pre-incubated, 10 nM, control 55.54",64.20 ± 1.65
same,anti-oxidant activity,[1]; βTC6 cells challenged with hydrogen peroxide,potent anti-oxidant activity
same,protection against H2O2 induced cellular oxidative damage,[1]; βTC6 insulinoma cells,Mild Protection
same,"Anti-oxidant activity, cells challenged with H2O2","[2]; Co-incubated, 10 pM, control 50.00",56.00 ± 3.35
same,"Anti-oxidant activity, cells challenged with H2O2","[2]; Co-incubated, 10 pg/ml, control 49.00",53.00 ± 2.50
same,"Anti-oxidant activity, cells challenged with H2O2","[2]; Co-incubated, 100 pM, control 50.00",58.96 ± 1.20
same,"Anti-oxidant activity, cells challenged with H2O2","[2]; Co-incubated, 100 pg/ml, control 49.00",57.80 ± 2.50
same,"Anti-oxidant activity, cells challenged with H2O2","[2]; Co-incubated, 1 nM, control 50.00",61.80 ± 1.80
same,"Anti-oxidant activity, cells challenged with H2O2","[2]; Co-incubated, 1 ng/ml, control 49.00",65.15 ± 1.99
same,"Anti-oxidant activity, cells challenged with H2O2","[2]; Co-incubated, 10 nM, control 50.00",63.00 ± 1.60
same,"Anti-oxidant activity, cells challenged with H2O2","[2]; Co-incubated, 100 nM, control 50.00",63.38 ± 2.10
same,"Anti-oxidant activity, cells challenged with H2O2","[2]; Co-incubated, 100 ng/ml (first of two lines so printed, r7), control 49.00",70.80 ± 3.25
same,"Anti-oxidant activity, cells challenged with H2O2","[2]; Co-incubated, 100 ng/ml (second line, r8), control 49.00",77.50 ± 2.95
same,"Anti-oxidant activity, cells challenged with H2O2","[2]; Pre-incubated, 10 pM, control 50.00",52.01 ± 2.80
same,"Anti-oxidant activity, cells challenged with H2O2","[2]; Pre-incubated, 10 pg/ml, control 49.00",55.00 ± 2.00
same,"Anti-oxidant activity, cells challenged with H2O2","[2]; Pre-incubated, 100 pM, control 50.00",55.76 ± 2.80
same,"Anti-oxidant activity, cells challenged with H2O2","[2]; Pre-incubated, 100 pg/ml, control 49.00",58.00 ± 1.70
same,"Anti-oxidant activity, cells challenged with H2O2","[2]; Pre-incubated, 1 nM, control 50.00",59.95 ± 2.10
same,"Anti-oxidant activity, cells challenged with H2O2","[2]; Pre-incubated, 1 ng/ml, control 49.00",64.00 ± 1.90
same,"Anti-oxidant activity, cells challenged with H2O2","[2]; Pre-incubated, 10 nM, control 50.00",61.13 ± 1.05
same,"Anti-oxidant activity, cells challenged with H2O2","[2]; Pre-incubated, 100 nM, control 50.00",64.25 ± 2.30
same,"Anti-oxidant activity, cells challenged with H2O2","[2]; Pre-incubated, 100 ng/ml (first of two lines so printed, r7), control 49.00",67.40 ± 3.70
same,"Anti-oxidant activity, cells challenged with H2O2","[2]; Pre-incubated, 100 ng/ml (second line, r8), control 49.00",75.00 ± 4.15
same,protection against H2O2 induced cellular oxidative damage,[2]; [5],potent protection
same,protection against H2O2 induced cellular oxidative damage,[2]; pM-nM doses,mild protection
same,"Anti-oxidant activity, cells challenged with H2O2","[3]; Co-incubated, 10 pM, control 60.10",62.10 ± 4.40
same,"Anti-oxidant activity, cells challenged with H2O2","[3]; Co-incubated, 10 pg/ml, control 61.10",60.40 ± 2.20
same,"Anti-oxidant activity, cells challenged with H2O2","[3]; Co-incubated, 100 pM, control 60.10",63.97 ± 8.52
same,"Anti-oxidant activity, cells challenged with H2O2","[3]; Co-incubated, 100 pg/ml, control 61.10",66.12 ± 2.70
same,"Anti-oxidant activity, cells challenged with H2O2","[3]; Co-incubated, 1 nM, control 60.10",66.10 ± 5.67
same,"Anti-oxidant activity, cells challenged with H2O2","[3]; Co-incubated, 1 ng/ml, control 61.10",70.07 ± 2.95
same,"Anti-oxidant activity, cells challenged with H2O2","[3]; Co-incubated, 10 nM, control 60.10",69.40 ± 5.00
same,"Anti-oxidant activity, cells challenged with H2O2","[3]; Co-incubated, 10 ng/ml, control 61.10",75.14 ± 0.90
same,"Anti-oxidant activity, cells challenged with H2O2","[3]; Co-incubated, 100 nM, control 60.10",72.40 ± 3.03
same,"Anti-oxidant activity, cells challenged with H2O2","[3]; Co-incubated, 100 ng/ml, control 61.10",77.51 ± 1.70
same,"Anti-oxidant activity, cells challenged with H2O2","[3]; Pre-incubated, 10 pM, control 60.10",59.80 ± 6.60
same,"Anti-oxidant activity, cells challenged with H2O2","[3]; Pre-incubated, 10 pg/ml, control 61.10",63.50 ± 1.00
same,"Anti-oxidant activity, cells challenged with H2O2","[3]; Pre-incubated, 100 pM, control 60.10",60.40 ± 8.50
same,"Anti-oxidant activity, cells challenged with H2O2","[3]; Pre-incubated, 100 pg/ml, control 61.10",69.40 ± 2.00
same,"Anti-oxidant activity, cells challenged with H2O2","[3]; Pre-incubated, 1 nM, control 60.10",63.70 ± 7.25
same,"Anti-oxidant activity, cells challenged with H2O2","[3]; Pre-incubated, 1 ng/ml, control 61.10",71.12 ± 1.12
same,"Anti-oxidant activity, cells challenged with H2O2","[3]; Pre-incubated, 10 nM, control 60.10",68.60 ± 4.50
same,"Anti-oxidant activity, cells challenged with H2O2","[3]; Pre-incubated, 10 ng/ml, control 61.10",78.98 ± 1.90
same,"Anti-oxidant activity, cells challenged with H2O2","[3]; Pre-incubated, 100 nM, control 60.10",72.81 ± 5.70
same,"Anti-oxidant activity, cells challenged with H2O2","[3]; Pre-incubated, 100 ng/ml, control 61.10",83.70 ± 1.70
same,protection against H2O2 induced cellular oxidative damage,[3]; [5],potent protection
same,protection against H2O2 induced cellular oxidative damage,[3]; pM-nM doses,mild protection
same,Cell viability,[4]; 10 pM,99.50 ± 1.50
same,Cell viability,[4]; 100 pM,99.99 ± 2.80
same,Cell viability,[4]; 1 nM,99.88 ± 0.91
same,Cell viability,[4]; 10 nM,98.25 ± 1.20
same,Cell viability,[4]; 100 nM,97.69 ± 1.09
same,Cell viability,[4]; 1 μM,90.68 ± 2.05
same,Cell viability,[4]; 10 μM,75.12 ± 2.85
same,Cell viability,[4]; 100 μM,62.54 ± 4.20
same,toxicity to the cell,"[4]; 3T3-L1 cells, 1 μM",non-toxic
